The source made the active and inactive calls.
Experiments:
[1] = Trypanosoma cruzi growth suppression in host cells – NIH3T3 host cells, beta-gal luminescence, confirmation (AID 2044); format: functional, cell-based;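 further: intracellular parasites grown in NIH/3T3 mouse fibroblasts as host cells; luminescent beta-galactosidase reporter signal from transgenic T. cruzi replicating inside host cells; inhibitors lower the luminescence signal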
[2] = target: FAD-linked sulfhydryl oxidase ALR (Homo sapiens, UniProt P55789); assay: ALR-catalysed DTT oxidation blockers – biochemical, H2O2 detection, luminescence, cherry-pick, dose response (AID 493248)
Chain of FAD-linked sulfhydryl oxidase ALR (P55789 whole entry): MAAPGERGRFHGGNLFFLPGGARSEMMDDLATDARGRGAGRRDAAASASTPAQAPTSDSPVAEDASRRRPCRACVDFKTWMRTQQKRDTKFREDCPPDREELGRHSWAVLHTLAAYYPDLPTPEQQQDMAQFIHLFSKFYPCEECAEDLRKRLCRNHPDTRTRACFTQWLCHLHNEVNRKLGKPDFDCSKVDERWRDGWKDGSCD

[3] = NIH3T3 cell viability loss – ATP luminescence, mouse fibroblasts, counter-screen, dose response (AID 2010); format: functional, cell-based;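 further: cells exposed to compound for about 90 hours before reading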
[4] = protection from phage-mediated lysis, alamar blue read-out – E. coli UTI89, K1F phage, bacterial capsule biogenesis inhibitors (AID 488966); format: functional
[5] = acridine orange displacement from DNA – biochemical, fluorescence polarization, cherry-pick, artefact control for RAD54 inhibitor project, dose response (AID 651673); format: functional
Vero = assay: cells; format: functional; conditions: Chlorocebus sabaeus
[6] = target: T1, Heat shock factor protein 1 (Mus musculus, UniProt P38532); assay: enhancement of HSF1-driven luciferase signal – cell-based, NIH3T3, luminescence, dose retest, confirmation (AID 435004); format: functional;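 further: stress induced by proteasome inhibitor MG132 added 30 min after compound; luciferase reporter driven by HSF1 response element in NIH3T3 cells; actives raise luminescence as potentiators of the MG132 stress response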
T1 sequence (P38532 whole entry): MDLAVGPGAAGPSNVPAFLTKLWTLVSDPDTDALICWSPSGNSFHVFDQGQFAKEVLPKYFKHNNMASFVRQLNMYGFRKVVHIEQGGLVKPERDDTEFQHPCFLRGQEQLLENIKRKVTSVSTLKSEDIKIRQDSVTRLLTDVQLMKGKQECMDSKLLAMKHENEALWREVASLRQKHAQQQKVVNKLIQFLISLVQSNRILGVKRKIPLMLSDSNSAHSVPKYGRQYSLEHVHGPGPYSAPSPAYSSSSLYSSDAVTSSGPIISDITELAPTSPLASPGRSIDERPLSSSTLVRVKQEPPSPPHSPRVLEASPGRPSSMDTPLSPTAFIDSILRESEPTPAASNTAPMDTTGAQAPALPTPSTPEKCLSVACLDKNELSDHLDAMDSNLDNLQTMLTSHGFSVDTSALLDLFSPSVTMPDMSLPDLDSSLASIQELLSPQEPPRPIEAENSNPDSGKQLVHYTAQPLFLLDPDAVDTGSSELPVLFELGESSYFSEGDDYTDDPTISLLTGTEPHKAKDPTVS

[7] = target: T2, DNA repair and recombination protein RAD54-like (Homo sapiens, UniProt Q92698); assay: RAD54 Holliday junction migration blockers – biochemical, fluorescence, cherry-picked samples, dose series, confirmation (AID 651657); format: functional
T2 sequence (Q92698 whole entry): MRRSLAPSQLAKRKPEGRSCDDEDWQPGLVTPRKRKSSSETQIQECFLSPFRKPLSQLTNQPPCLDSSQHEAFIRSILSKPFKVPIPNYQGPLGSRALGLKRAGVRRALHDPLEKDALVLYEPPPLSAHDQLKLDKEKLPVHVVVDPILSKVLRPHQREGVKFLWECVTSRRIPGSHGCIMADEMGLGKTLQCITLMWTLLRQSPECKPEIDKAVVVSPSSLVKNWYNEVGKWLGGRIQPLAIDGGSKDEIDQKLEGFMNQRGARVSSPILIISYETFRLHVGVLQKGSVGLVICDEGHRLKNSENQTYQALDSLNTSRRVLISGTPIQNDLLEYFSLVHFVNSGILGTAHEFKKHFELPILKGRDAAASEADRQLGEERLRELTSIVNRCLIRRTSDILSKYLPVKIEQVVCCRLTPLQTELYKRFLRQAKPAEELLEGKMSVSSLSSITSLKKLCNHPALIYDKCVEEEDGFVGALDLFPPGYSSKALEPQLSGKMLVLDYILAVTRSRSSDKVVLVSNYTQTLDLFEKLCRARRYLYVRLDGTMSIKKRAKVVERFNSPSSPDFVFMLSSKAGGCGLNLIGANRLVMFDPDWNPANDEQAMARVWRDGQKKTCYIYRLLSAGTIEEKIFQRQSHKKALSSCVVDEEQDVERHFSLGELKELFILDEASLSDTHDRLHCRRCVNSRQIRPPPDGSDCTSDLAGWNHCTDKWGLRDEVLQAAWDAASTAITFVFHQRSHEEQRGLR

[8] = target: T3, DNA repair protein RAD52 homolog (Homo sapiens, UniProt P43351); format: functional, biochemical
T3 sequence (P43351 whole entry): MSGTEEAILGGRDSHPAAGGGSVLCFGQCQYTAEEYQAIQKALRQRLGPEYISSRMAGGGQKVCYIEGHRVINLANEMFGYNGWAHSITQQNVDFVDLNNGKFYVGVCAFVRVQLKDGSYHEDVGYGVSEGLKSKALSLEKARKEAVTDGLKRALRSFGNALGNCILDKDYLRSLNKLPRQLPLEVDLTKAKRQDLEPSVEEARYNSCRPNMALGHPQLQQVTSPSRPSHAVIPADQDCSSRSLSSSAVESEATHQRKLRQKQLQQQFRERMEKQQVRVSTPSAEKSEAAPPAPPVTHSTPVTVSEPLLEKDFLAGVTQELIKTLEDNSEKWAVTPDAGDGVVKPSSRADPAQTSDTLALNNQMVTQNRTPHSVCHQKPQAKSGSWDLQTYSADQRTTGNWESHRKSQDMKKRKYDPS

X-box-binding protein 1 = X-box-binding protein 1 (Homo sapiens, UniProt P17861); format: functional, Cricetulus griseus;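 further: confirmatory dose-response counter-screen serving a CHOP assay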
[9] = target: Scavenger receptor class B member 1 (Mus musculus, UniProt Q61009); assay: mouse SR-BI DiI-HDL uptake blockers – ldlA[mSR-BI] cells, fluorescence, cherry pick, dose response (AID 493194); format: functional, cell-based;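 further: cellular uptake of fluorescent DiI-labeled HDL measured as cell fluorescence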
[10] = target: Acylamino-acid-releasing enzyme (Homo sapiens, UniProt P13798); assay: endogenous PME-1 and serine hydrolase inhibition – cell lysate, mouse brain cytosol, FP-rhodamine, gel ABPP, selectivity assay for PME-1 inhibitor project, dose response, panel member APEH Assay Panel member description: Inhibition of N-acylaminoacyl-peptide hydrolase (APEH) (anti-target) (AID 2366)
Chain of Acylamino-acid-releasing enzyme (P13798 whole entry): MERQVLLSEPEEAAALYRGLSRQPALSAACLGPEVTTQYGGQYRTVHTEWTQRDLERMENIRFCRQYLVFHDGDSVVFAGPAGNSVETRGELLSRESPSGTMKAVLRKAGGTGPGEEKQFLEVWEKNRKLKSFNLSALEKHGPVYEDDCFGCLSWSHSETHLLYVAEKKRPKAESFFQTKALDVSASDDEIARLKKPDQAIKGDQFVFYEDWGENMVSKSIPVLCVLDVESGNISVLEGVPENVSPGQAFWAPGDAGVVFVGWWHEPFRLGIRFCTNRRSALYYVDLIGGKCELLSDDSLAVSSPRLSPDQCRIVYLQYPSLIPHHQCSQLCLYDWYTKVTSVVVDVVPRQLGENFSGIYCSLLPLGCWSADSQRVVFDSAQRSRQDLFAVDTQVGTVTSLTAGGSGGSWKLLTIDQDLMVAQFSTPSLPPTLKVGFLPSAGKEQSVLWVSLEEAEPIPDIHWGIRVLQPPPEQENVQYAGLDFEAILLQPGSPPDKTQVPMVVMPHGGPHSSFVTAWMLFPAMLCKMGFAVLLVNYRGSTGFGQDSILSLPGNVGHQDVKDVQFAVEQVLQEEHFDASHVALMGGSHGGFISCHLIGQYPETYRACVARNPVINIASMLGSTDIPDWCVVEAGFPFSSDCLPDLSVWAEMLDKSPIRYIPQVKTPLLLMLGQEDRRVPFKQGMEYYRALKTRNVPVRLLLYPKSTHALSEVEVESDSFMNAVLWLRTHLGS

[11] = BJeH cell viability loss – BJeH cells, dry powder, counter-screen for Ras selective lethality project, dose response (AID 493054); format: functional, cell-based
[12] = target: Protein phosphatase methylesterase 1 (Homo sapiens, UniProt Q9Y570); assay: endogenous PME-1 and serine hydrolase inhibition – cell lysate, mouse brain cytosol, FP-rhodamine, gel ABPP, selectivity assay for PME-1 inhibitor project, dose response, panel member PME-1 Assay Panel member description: Inhibition of endogenously expressed PME-1 (AID 2366)
Chain of Protein phosphatase methylesterase 1 (Q9Y570 whole entry): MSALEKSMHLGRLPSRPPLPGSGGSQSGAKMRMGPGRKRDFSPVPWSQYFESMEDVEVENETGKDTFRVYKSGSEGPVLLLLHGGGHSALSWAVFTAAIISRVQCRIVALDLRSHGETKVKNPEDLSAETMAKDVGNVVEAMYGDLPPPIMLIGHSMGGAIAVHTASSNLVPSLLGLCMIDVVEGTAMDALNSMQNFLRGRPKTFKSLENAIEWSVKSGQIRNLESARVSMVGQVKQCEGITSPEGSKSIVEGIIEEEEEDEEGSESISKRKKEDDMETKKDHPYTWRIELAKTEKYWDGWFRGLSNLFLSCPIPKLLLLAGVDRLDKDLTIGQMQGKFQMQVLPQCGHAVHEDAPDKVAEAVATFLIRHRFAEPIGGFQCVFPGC

[13] = target: C-C chemokine receptor type 6 (Homo sapiens, UniProt P51684); assay: antagonism of CCR6 beta-arrestin recruitment – cell-based, luminescent beta-arrestin readout, dose response (AID 504728); format: functional
Beta-galactosidase = Beta-galactosidase (Escherichia coli, UniProt Q8VNN2); assay: detection-enzyme interference by beta-gal modulators – biochemical, E. coli enzyme, set 3, artefact control for CCR6 antagonist project, dose response (AID 504712); format: functional
SUMO E1/E2 = SUMO E1/E2 (Homo sapiens, UniProt P63279+Q9UBE0+Q9UBT2); assay: SAR analysis of SUMOylation using HTRF in an in-Vitro dose response assay. [Related pubchem assays (depositor defined):AID2006, AID2011, AID2018, AID2069, AID2658]; format: functional
[14] = target: T4, Voltage-gated N-type calcium channel alpha-1B subunit/Amyloid beta A4 precursor protein-binding family A member 1 (Homo sapiens, UniProt Q00975+Q02410); assay: disruptors of Mint-PDZ/N-type channel peptide interaction – biochemical, HTRF, SAR follow-up (AID 2489); format: functional
T4 sequence (Q00975 whole entry): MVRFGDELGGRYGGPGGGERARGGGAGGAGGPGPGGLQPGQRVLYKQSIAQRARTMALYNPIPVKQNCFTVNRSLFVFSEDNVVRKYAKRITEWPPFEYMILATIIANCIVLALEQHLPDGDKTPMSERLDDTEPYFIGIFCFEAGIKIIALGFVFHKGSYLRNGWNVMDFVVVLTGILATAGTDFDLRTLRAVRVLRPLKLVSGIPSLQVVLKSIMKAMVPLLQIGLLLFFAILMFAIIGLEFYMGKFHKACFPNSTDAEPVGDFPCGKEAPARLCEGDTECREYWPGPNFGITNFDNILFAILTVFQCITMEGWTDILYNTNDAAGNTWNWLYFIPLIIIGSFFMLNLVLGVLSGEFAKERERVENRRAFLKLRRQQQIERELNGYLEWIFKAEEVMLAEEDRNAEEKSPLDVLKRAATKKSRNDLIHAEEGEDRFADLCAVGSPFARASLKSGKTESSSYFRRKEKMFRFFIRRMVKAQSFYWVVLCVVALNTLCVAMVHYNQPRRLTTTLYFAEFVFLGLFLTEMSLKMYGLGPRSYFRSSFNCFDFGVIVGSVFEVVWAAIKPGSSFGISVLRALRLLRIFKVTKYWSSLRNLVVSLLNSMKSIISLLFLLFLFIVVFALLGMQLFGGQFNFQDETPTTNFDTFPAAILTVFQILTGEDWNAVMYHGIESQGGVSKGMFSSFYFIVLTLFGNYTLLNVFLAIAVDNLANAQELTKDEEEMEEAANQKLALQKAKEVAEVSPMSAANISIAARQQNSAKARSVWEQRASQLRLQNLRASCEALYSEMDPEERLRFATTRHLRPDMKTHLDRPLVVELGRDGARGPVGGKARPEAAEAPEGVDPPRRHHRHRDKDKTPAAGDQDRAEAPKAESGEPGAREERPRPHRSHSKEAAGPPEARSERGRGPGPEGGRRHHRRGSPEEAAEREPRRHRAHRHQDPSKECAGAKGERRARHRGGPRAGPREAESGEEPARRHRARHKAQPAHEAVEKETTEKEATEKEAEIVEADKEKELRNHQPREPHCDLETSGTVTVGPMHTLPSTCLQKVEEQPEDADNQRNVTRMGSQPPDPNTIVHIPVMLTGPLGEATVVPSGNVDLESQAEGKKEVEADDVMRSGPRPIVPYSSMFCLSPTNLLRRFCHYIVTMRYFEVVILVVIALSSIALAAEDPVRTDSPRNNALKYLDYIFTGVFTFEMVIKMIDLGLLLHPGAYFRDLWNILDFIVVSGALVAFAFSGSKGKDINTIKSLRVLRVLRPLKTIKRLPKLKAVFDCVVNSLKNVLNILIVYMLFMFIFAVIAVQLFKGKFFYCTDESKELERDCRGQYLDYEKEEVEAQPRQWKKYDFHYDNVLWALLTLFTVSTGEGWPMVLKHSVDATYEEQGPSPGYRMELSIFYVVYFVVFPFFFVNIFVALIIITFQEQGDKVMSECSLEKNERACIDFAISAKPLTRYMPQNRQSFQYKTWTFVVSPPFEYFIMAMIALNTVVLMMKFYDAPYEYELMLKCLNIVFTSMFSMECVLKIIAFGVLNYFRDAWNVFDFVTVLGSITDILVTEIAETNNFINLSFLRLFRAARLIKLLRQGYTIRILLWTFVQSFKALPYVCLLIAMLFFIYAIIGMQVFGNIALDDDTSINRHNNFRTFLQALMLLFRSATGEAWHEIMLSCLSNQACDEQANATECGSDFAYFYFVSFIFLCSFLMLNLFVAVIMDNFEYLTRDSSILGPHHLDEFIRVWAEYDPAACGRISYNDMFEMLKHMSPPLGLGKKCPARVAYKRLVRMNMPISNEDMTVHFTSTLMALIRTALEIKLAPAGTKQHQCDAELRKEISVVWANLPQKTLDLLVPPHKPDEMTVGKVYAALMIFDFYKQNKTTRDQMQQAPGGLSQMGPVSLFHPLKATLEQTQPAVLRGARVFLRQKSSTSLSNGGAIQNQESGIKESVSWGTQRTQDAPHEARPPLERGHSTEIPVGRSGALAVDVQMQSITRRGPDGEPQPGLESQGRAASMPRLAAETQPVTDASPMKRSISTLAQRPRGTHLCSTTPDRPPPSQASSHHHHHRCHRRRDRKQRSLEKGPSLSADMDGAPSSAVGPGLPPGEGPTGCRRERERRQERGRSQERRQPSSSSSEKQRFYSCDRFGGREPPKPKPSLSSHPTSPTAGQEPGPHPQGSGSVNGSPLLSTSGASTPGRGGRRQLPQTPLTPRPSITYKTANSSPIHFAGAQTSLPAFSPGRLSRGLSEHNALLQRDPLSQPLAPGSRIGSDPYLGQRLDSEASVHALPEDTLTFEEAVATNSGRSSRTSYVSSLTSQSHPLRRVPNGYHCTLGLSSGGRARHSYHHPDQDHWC
T4 sequence (Q02410 whole entry): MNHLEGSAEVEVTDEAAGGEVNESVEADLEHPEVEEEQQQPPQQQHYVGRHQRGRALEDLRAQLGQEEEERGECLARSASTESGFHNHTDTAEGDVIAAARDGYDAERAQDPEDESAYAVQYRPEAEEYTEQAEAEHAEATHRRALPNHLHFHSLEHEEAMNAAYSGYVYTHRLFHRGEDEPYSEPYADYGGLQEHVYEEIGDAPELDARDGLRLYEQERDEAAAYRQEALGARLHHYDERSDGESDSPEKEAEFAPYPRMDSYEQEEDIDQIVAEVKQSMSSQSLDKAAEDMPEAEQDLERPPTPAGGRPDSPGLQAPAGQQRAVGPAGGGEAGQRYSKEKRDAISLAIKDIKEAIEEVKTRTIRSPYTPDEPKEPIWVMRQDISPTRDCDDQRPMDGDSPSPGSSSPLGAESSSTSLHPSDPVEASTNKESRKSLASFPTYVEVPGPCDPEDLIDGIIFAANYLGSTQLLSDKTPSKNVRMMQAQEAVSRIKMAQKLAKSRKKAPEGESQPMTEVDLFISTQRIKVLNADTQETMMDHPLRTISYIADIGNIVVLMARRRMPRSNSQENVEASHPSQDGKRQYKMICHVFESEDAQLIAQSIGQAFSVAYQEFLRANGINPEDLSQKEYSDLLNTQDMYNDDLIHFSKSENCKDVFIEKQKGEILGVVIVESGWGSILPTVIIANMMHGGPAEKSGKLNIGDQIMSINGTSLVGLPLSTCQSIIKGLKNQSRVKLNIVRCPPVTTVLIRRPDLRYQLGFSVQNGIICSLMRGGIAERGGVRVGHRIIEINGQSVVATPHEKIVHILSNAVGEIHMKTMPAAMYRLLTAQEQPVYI

[15] = target: T4, Voltage-gated N-type calcium channel alpha-1B subunit/Amyloid beta A4 precursor protein-binding family A member 1; assay: disruptors of Mint-PDZ/N-type channel peptide interaction – biochemical, HTRF, set 2, SAR follow-up (AID 434980); format: functional
CAAX prenyl protease 2 = CAAX prenyl protease 2 (Homo sapiens, UniProt Q9Y256); assay: inhibition of Ras-converting CAAX protease Rce1 – biochemical, yeast membranes, quenched-peptide fluorescence, cherry-pick, dose response (AID 588849)
Chain of CAAX prenyl protease 2 (Q9Y256 whole entry): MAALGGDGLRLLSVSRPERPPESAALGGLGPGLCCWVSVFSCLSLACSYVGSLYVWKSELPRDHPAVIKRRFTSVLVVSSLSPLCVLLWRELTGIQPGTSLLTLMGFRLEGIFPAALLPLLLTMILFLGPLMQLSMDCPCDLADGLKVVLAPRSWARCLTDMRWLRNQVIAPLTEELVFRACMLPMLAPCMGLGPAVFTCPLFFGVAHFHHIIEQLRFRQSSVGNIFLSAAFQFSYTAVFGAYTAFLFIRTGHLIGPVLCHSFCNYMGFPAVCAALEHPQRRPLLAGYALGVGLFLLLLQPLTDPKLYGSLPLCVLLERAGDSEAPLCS

Trypsin = Trypsin (Sus scrofa, UniProt P00761); assay: trypsin protease activity blockade – biochemical, quenched peptide fluorescence, cherry-pick, selectivity assay for Rce1 protease inhibitor project, dose response (AID 488789)
Chain of Trypsin (P00761 whole entry): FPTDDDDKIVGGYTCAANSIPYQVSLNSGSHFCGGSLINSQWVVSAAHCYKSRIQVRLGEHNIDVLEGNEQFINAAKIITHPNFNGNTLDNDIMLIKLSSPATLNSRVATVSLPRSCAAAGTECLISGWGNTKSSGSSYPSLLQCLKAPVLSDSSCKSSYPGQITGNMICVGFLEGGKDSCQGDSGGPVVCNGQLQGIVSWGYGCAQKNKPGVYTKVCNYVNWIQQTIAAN

HeLa = assay: Cytotoxicity counterscreen assay for transcriptional activators of heat shock protein 70 (Hsp70). [Related pubchem assays: 1203, 1252 ]; format: functional; conditions: Homo sapiens;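 further: cells exposed to compound for 16 hours before readout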
[16] = target: Acyl-homoserine lactone acylase PvdQ (Pseudomonas aeruginosa (strain LESB58), UniProt Q9I194); assay: PvdQ acylase enzyme activity blockers – biochemical, fluorescence, plate reader and imaging, cherry-picks, dose response (AID 493231)
[17] = target: T5, Histone-lysine N-methyltransferase NSD2 (Homo sapiens, UniProt O96028); format: biochemical
T5 sequence (O96028 whole entry): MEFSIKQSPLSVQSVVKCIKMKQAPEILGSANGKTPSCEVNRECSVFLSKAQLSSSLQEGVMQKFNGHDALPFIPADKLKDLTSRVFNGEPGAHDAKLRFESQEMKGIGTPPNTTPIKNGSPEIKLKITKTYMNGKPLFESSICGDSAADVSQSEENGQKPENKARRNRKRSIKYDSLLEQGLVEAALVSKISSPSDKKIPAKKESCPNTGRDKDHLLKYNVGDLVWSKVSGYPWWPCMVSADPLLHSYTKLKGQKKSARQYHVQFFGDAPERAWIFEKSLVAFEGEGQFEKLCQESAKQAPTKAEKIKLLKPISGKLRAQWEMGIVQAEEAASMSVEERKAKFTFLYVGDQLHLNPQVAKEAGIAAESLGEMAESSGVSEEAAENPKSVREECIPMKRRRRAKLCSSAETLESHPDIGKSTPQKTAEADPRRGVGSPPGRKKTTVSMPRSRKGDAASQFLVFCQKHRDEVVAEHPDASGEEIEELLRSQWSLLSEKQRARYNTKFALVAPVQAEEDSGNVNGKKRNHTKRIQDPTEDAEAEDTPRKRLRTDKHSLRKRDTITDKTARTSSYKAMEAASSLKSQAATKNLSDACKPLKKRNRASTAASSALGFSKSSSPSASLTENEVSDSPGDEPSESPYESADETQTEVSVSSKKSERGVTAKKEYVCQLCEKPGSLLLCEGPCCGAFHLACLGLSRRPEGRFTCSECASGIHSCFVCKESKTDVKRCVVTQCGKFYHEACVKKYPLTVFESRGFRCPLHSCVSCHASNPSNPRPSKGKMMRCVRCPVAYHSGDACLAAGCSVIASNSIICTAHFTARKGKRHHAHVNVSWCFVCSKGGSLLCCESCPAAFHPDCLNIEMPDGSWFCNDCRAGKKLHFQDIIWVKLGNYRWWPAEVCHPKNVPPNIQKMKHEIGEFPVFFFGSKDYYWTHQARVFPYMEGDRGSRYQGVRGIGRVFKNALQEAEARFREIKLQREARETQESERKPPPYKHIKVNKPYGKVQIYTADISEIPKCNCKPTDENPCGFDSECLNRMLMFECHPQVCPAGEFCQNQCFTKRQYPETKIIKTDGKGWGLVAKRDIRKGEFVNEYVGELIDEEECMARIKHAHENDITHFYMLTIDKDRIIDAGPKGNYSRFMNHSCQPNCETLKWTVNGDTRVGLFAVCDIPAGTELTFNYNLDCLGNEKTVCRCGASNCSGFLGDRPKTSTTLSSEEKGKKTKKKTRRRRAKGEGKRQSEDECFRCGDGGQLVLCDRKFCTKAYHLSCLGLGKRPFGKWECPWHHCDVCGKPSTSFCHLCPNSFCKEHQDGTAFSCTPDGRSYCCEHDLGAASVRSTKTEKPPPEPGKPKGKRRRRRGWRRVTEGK

ORF 73 = ORF 73 (Human herpesvirus 8, UniProt O40947); assay: KSHV LANA DNA-binding disruption – biochemical, fluorescence polarization, cherry-picked samples, dose response (AID 504725); design: species or system Human gammaherpesvirus 8;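 further: fluorescence polarization of a labeled DNA duplex reporting LANA DNA binding; potency is for inhibitors that block LANA binding to the DNA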
[18] = target: T6, Carboxy-terminal domain RNA polymerase II polypeptide A small phosphatase 1 (Homo sapiens, UniProt Q9GZU7); assay: CTDSP1 inhibitors, concentration-response, biochemical, absorbance readout, ultra-high-throughput screen actives (AID 540297); format: functional
T6 sequence (Q9GZU7 whole entry): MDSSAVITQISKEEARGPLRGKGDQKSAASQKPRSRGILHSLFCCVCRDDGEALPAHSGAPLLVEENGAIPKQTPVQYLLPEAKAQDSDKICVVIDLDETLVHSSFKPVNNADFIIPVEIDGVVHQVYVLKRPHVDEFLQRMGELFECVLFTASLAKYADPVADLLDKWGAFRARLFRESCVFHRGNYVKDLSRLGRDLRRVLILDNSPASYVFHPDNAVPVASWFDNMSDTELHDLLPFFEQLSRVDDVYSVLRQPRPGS

CN1CCN(c2ccc(Nc3ccnc4cc(Cl)ccc34)cc2)CC1
EC50 [1]: 1.39 µM (active)
AC50 [2]: 5.43 µM (active)
EC50 [3]: 10.4 µM (active)
IC50 [4]: > 300 µM (active)
AC50 [5]: 56.1 µM (active)
CC50 (Vero): 17.1 µM (active)
EC50 [6]: > 260 µM (inactive)
AC50 [7]: 6.94 µM (active)
AC50 [8]: 2.47 µM (active)

O=C(CNc1cccc(C(F)(F)F)c1)N/N=C/c1cccc(Br)c1
Absolute IC50 (XBP1) (X-box-binding protein 1): 10 µM

COc1cc(NC(=O)c2ccco2)c(OC)cc1NC(=O)Nc1ccc(Cl)cc1
AC50 [9]: 6.53 µM (active)

CS(=O)(=O)/C(C#N)=C/c1cccn1S(=O)(=O)c1ccccc1
IC50 [10]: 20 µM (inactive)

COc1ccc(N(C(=O)CSc2ncccn2)C(C(=O)NCCc2ccccc2)c2cccs2)cc1Cl (stereo unspecified)
AC50 [11]: > 381 µM (inactive)

CS(=O)(=O)/C(C#N)=C/c1cccn1S(=O)(=O)c1ccc([N+](=O)[O-])cc1[N+](=O)[O-]
IC50 [12]: > 20 µM (inactive)

COC(=O)N/N=C/c1cc(N=Nc2ccccc2Cl)ccc1O
IC50 [13]: > 66.6 µM (inactive)
IC50 (Beta-galactosidase): > 66.6 µM (inactive)

COC(=O)c1ccc(CNC(=O)COC(=O)c2cc(-c3ccco3)nc3ccccc23)cc1
IC50 (SUMO E1/E2): 2.23 µM (active)
IC50 [14]: 19.2 µM (active)
IC50 [15]: 6.74 µM (active)

CCOP(=O)(c1ccccc1)c1nc(-c2ccccc2Cl)oc1N1CCCCC1 (stereo unspecified)
AC50 (CAAX prenyl protease 2): 5.21 µM (active)
AC50 (Trypsin): 4.67 µM (active)

CCOC(=O)C1CCN(c2ccc([N+](=O)[O-])cc2)CC1
CC50 (HeLa): > 33 µM (not active)
AC50 [16]: 40.5 µM (active)

O=C(O)COc1ccc2c(c1)O/C(=C\c1ccco1)C2=O
AC50 [17]: > 20 µM (inactive)
AC50 (ORF 73): 157 µM (active)
IC50 [18]: 3.74 µM (active)

Source: ChEMBL document CHEMBL1201862, “PubChem BioAssay data set” (2004)
